Columns and labels:
[1] = wn = mass fraction of the nth substance listed; settings: 101 kPa, Liquid; for viscosity: Concentric cylinders viscometry; for mass density: Vibrating tube method
[2] = refractive index (Na D-line) (dimensionless); wn = mass fraction of the nth substance listed; settings: 101 kPa, Liquid, Standard Abbe refractometry

CC(O)CN (stereo not given) [1-amino-2-propanol] + O
Settings	mass density, [1] [kg/m3]	refractive index, [2]	viscosity, [1] [mPa·s]
298.15 K, w1 = 0.05	998.574	1.33891	1.088
298.15 K, w1 = 0.1	999.182	1.34586	1.296
298.15 K, w1 = 0.15	999.932	1.35281	1.569
298.15 K, w1 = 0.2	1001.03	1.35955	1.944
298.15 K, w1 = 0.25	1002.46	1.36649	2.444
303.15 K, w1 = 0.05	997.087	1.33825	0.9733
303.15 K, w1 = 0.1	997.57	1.34506	1.148
303.15 K, w1 = 0.15	998.142	1.35201	1.372
303.15 K, w1 = 0.2	999.018	1.35875	1.678
303.15 K, w1 = 0.25	1000.2	1.3656	2.083
308.15 K, w1 = 0.05	995.386	1.33749	0.8761
308.15 K, w1 = 0.1	995.747	1.34432	1.027
308.15 K, w1 = 0.15	996.159	1.35092	1.215
308.15 K, w1 = 0.2	996.833	1.35767	1.468
308.15 K, w1 = 0.25	997.78	1.36461	1.799
313.15 K, w1 = 0.05	993.483	1.33668	0.7937
313.15 K, w1 = 0.1	993.738	1.34343	0.9275
313.15 K, w1 = 0.15	994.005	1.35012	1.084
313.15 K, w1 = 0.2	994.489	1.35672	1.295
313.15 K, w1 = 0.25	995.218	1.36347	1.574
318.15 K, w1 = 0.05	991.399	1.33578	0.7225
318.15 K, w1 = 0.1	991.552	1.34259	0.8362
318.15 K, w1 = 0.15	991.681	1.34908	0.9756
318.15 K, w1 = 0.2	991.989	1.35573	1.155
318.15 K, w1 = 0.25	992.514	1.36228	1.384
323.15 K, w1 = 0.05	989.143	1.33483	0.6617
323.15 K, w1 = 0.1	989.197	1.34154	0.7617
323.15 K, w1 = 0.15	989.197	1.34799	0.8864
323.15 K, w1 = 0.2	989.338	1.35454	1.039
323.15 K, w1 = 0.25	989.679	1.36109	1.231
328.15 K, w1 = 0.05	986.722	1.33384	0.6112
328.15 K, w1 = 0.1	986.682	1.3405	0.6988
328.15 K, w1 = 0.15	986.564	1.34705	0.8113
328.15 K, w1 = 0.2	986.546	1.3533	0.943
328.15 K, w1 = 0.25	986.711	1.35985	1.102
333.15 K, w1 = 0.05	984.143	1.3328	0.5696
333.15 K, w1 = 0.1	984.015	1.33936	0.647
333.15 K, w1 = 0.15	983.779	1.34581	0.75
333.15 K, w1 = 0.2	983.615	1.35211	0.8659
333.15 K, w1 = 0.25	983.616	1.35861	0.9934
338.15 K, w1 = 0.05	981.41	1.33173	0.5381
338.15 K, w1 = 0.1	981.198	1.33832	0.6053
338.15 K, w1 = 0.15	980.853	1.34462	0.6919
338.15 K, w1 = 0.2	980.549	1.35092	0.8
338.15 K, w1 = 0.25	980.398	1.35753	0.9015
343.15 K, w1 = 0.05	978.537	1.33057	0.5152
343.15 K, w1 = 0.1	978.237	1.33713	0.5701
343.15 K, w1 = 0.15	977.785	1.34343	0.6478
343.15 K, w1 = 0.2	977.354	1.34968	0.7408
343.15 K, w1 = 0.25	977.059	1.35614	0.8266

Reference: the NIST ThermoML archive (doi:10.1021/je300938w)
